Measured values from US20070202486A1, “Method Of Assaying Substance Capable Of Changing Mitochondrial Membrane Potential” (Mitsubishi Pharma Corporation, priority 2004, published 2007).

Assays:
[1] = tested on: Girardi cells; experiment: Mitochondrial depolarization inhibition, JC-1 fluorescence ratio, ouabain/KCl-induced depolarization (Example 1); assay type: cell-based, human; conditions: 1 mM ouabain + 60 mM KCl, 2 hr
Procedure: First of all, Girardi cells are seeded on a plate usable for an optical measurement method, and cultured in a normal medium (MEM medium supplemented with additives, such as non-essential amino acid, fetal bovine serum and the like). Then, the medium is changed to a normal medium containing JC-1 to allow incorporation of JC-1 into the cell, the medium is changed to a normal medium containing a test substance, and the cells are cultured. Then, a depolarization-inducing medium is used (normal medium containing ouabain and KCl; in the evaluation method of the present invention, ouabain is used at a concentration of 0.1 μM-3 mM, and KCl is used at a concentration of 20 mM-90 mM). The test substance may be added along with or after addition of a depolarization-inducing medium following incorporation of JC-1 into the cell. After addition of the depolarization-inducing medium, the culture time can be 1-24 hr. Thereafter, the fluorescence of JC-1 monomer and the fluorescence of J-aggregate are measured on a fluorescence plate reader (capable of excitation at around 488-490 nm, which is the excitation wavelength of JC-1, and capable of fluorescence detection around 527 nm, which is the fluorescence wavelength peak of JC-1 monomer and around 590-600 nm, which is the fluorescence wavelength of J-aggregate), and the fluorescence intensity ratio (monomer fluorescence intensity/J-aggregate fluorescence intensity) is calculated.
Girardi cells suspended in a normal medium [(MEM (GIBCO 11095-098) supplemented with 1% non-essential amino acid (MEM Non-Essential Amino Acids Solution 10 mM 100× GIBCO 11140-050), and 10% fetal bovine serum (BIOFLUIDS DIVISION Lot No. 302030))] were seeded to a 96-well clear bottom black plate (MATRIX MT4940) at 200 μL/well and cultured.
JC-1 (Molecular Probes T-3168, 1 mg/mL DMSO solution) was added to a phenol red-free normal medium [MEM (GIBCO 51200-038) supplemented with 1% non-essential amino acid (MEM Non-Essential Amino Acids Solution 10 mM 100× GIBCO 11140-050), 1% L-glutamine (L-Glutamine-200 mM 100×: GIBCO 25030-149) and 10% fetal bovine serum (BIOFLUIDS DIVISION: Lot No. 302030)] at 10 μL/mL, the mixture was stirred with a vortex mixer and centrifuged at 3000 rpm for 1 min and the supernatant was filtered through a syringe filter (0.22 μm, MILLIPORE). The medium in the 96-well plate was removed and the JC-1 solution was dispensed to a cell-seeded well at 50 μL/well. […]
After induction of depolarization, the plate was set on a fluorescence plate reader (TECAN, SpectraFluor) heated to 37° C., and the J-aggregate fluorescence was measured at 595 nm using an excitation wavelength of 485 nm. Then, the monomer fluorescence was measured at 535 nm using an excitation wavelength of 485 nm. […]

[2] = tested on: Griardi cells; conditions: JC-1, flow cytometry; cited from earlier work
[3] = tested on: Griardi cells; conditions: 3 hr low oxygen with metabolism inhibitor, then 1 hr normal medium; cited from earlier work

Row | SMILES | mitochondrial depolarization inhibitory action (fluorescence intensity ratio monomer/J-aggregate) [1] | other results
1 | COc1ccc([C@@H]2Sc3ccccc3N(CCN(C)C)C(=O)[C@@H]2OC(C)=O)cc1.Cl [diltiazem, diltiazem hydrochloride] | did not prevent mitochondrial depolarization | 
2 | N#CC(C#N)=NNc1cccc(Cl)c1 [CCCP] |  | mitochondrial membrane potential (red fluorescence intensity of JC-1) [2]: decreased fluorescence intensity and depolarization of mitochondria were observed
3 | CC1=NS(=O)(=O)c2cc(Cl)ccc2N1 [diazoxide] | mitochondrial depolarization inhibitory action | 
4 | CC1(C)Oc2ccc(C#N)cc2[C@H](N(Cc2ncc[nH]2)c2ccc(Cl)cc2)[C@H]1O [BMS-191095] | mitochondrial depolarization inhibitory action | 
5 | CC1(C)Oc2ccc(C#N)cc2[C@@H](N2CCCC2=O)[C@@H]1O [levcromakalim] | did not prevent mitochondrial depolarization | 
6 | Nc1ncnc2c1ncn2[C@@H]1O[C@H](CO)[C@@H](O)[C@H]1O [adenosine] |  | apoptosis [3]: strongly inhibited apoptosis
